“And” between values parts separate entries of the source, which are not always exact repeats. Equal values may be shown once. Inconclusive results and toxic doses are left out.
Tested on: P388 leukemia ip, CD2F1 mice, survival T/C
Assay: NCI In Vivo Anticancer Drug Screen. Data for tumor model P388 Leukemia (intraperitoneal) in CD2F1 (CDF1) mice
Conditions: endpoint: median survival time, higher = longer survival
Method in brief: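 Mice carrying the transplanted tumor received test compound or vehicle. Survival was recorded in each group, and the value is the treated-group measurement divided by that of the vehicle-treated control group.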

[1] = dose: 50.0 mg/kg/injection, schedule: Q01DX009 (ip), vehicle: saline with Tween-80
[2] = dose: 100.0 mg/kg/injection, schedule: Q01DX009 (ip), vehicle: saline with Tween-80
[3] = dose: 200.0 mg/kg/injection, schedule: Q01DX009 (ip), vehicle: saline with Tween-80
[4] = dose: 60.0 mg/kg/injection, schedule: Q01DX005 (ip), vehicle: saline with Tween-80
[5] = dose: 50.0 mg/kg/injection, schedule: Q01DX005 (ip), vehicle: saline with Tween-80
[6] = dose: 100.0 mg/kg/injection, schedule: Q01DX005 (ip), vehicle: saline with Tween-80
[7] = dose: 200.0 mg/kg/injection, schedule: Q01DX005 (ip), vehicle: saline with Tween-80

Q: What does the source list for `O=C1NC(=O)/C(=C\c2ccco2)S1`?
A: T/C (dose: 6.25 mg/kg/injection, schedule: Q01DX009 (ip), vehicle: Klucel (hydroxypropylcellulose) (HPC)): 98 % of control; T/C (dose: 12.5 mg/kg/injection, schedule: Q01DX009 (ip), vehicle: Klucel (hydroxypropylcellulose) (HPC)): 89 % of control; T/C (dose: 25.0 mg/kg/injection, schedule: Q01DX009 (ip), vehicle: Klucel (hydroxypropylcellulose) (HPC)): 94 % of control

Q: How did the T/C (dose: 100.0 mg/kg/injection, schedule: Q04DX003 (ip), vehicle: saline with Tween-80) turn out when `CCCCC(CC)COC(C)=O` (stereo unspecified) was run?
A: Its T/C is 104 % of control.

Q: What about the T/C (dose: 200.0 mg/kg/injection, schedule: Q04DX003 (ip), vehicle: saline with Tween-80) of the same compound?
A: The T/C was 109 % of control.

Q: And the T/C (dose: 400.0 mg/kg/injection, schedule: Q04DX003 (ip), vehicle: saline with Tween-80)?
A: The T/C was 86 % of control.

Q: How did the T/C (dose: 50.0 mg/kg/injection, schedule: Q01DX005 (ip), vehicle: Klucel (hydroxypropylcellulose) (HPC)) turn out when `O=[N+]([O-])c1ccc(SN2CCCCC2CC2CCCCC2)c([N+](=O)[O-])c1` (stereo unspecified) was run?
A: Its T/C is 105 % of control.

Q: And the T/C (dose: 100.0 mg/kg/injection, schedule: Q01DX005 (ip), vehicle: Klucel (hydroxypropylcellulose) (HPC))?
A: The T/C was 98 % of control.

Q: What about the T/C (dose: 200.0 mg/kg/injection, schedule: Q01DX005 (ip), vehicle: Klucel (hydroxypropylcellulose) (HPC)) of the same compound?
A: The T/C was 96 % of control.

Q: Which results are given for `CC1=NNB(O)c2ccsc21`?
A: T/C [1]: 98 % of control; T/C [2]: 99 % of control; T/C [3]: 108 % of control

Q: What does the source list for `COc1cc2c(cc1OC)C(C(=O)O)C1c3cc4c(cc3CCN1C2=O)OCO4` (stereo unspecified)?
A: T/C (dose: 50.0 mg/kg/injection, schedule: Q04DX003 (ip), vehicle: distilled water + Tween-80): 102 % of control and 115 % of control; T/C (dose: 100.0 mg/kg/injection, schedule: Q04DX003 (ip), vehicle: distilled water + Tween-80): 105 % of control and 100 % of control; T/C (dose: 200.0 mg/kg/injection, schedule: Q04DX003 (ip), vehicle: distilled water + Tween-80): 113 % of control and 100 % of control; T/C (dose: 400.0 mg/kg/injection, schedule: Q04DX003 (ip), vehicle: distilled water + Tween-80): 88 % of control and 100 % of control

Q: For `Cc1c(-c2ccc(Cl)cc2)n[nH]c1-c1[nH]nc(-c2ccc(Cl)cc2)c1C`, which T/C [4] is on record?
A: The T/C was 105 % of control.

Q: And the T/C (dose: 120.0 mg/kg/injection, schedule: Q01DX005 (ip), vehicle: saline with Tween-80)?
A: The T/C was 105 % of control.

Q: And the T/C (dose: 240.0 mg/kg/injection, schedule: Q01DX005 (ip), vehicle: saline with Tween-80)?
A: Its T/C is 94 % of control.

Q: `CC(=O)OCC1OC([Se-])C(OC(C)=O)C(OC(C)=O)C1OC(C)=O.N#CCC[PH+](CCC#N)CCC#N.[Au+]` (stereo unspecified) was tested. Which T/C [4] did it give?
A: The T/C was 98 % of control.

Q: Which results are given for `O=C(O)C(O)(C1CCCCC1)C1CCC(C2CCCCC2)CC1C1CCCCC1` (stereo unspecified)?
A: T/C [5]: 98 % of control; T/C [6]: 102 % of control; T/C [7]: 100 % of control

Q: What does the source list for `NC(=O)CCBr`?
A: T/C [1]: 101 % of control; T/C [2]: 97 % of control

Q: For `CCOC(=O)C1CC(=O)c2ccc(OC)c(OC)c2C1` (stereo unspecified), which T/C (dose: 25.0 mg/kg/injection, schedule: Q01DX009 (ip), vehicle: other) is on record?
A: Its T/C is 103 % of control.

Q: And the T/C (dose: 50.0 mg/kg/injection, schedule: Q01DX009 (ip), vehicle: other)?
A: The T/C was 100 % of control.

Q: What about the T/C (dose: 100.0 mg/kg/injection, schedule: Q01DX009 (ip), vehicle: other) of the same compound?
A: The T/C was 94 % of control.

Q: What about the T/C (dose: 200.0 mg/kg/injection, schedule: Q01DX009 (ip), vehicle: other) of the same compound?
A: Its T/C is 94 % of control.

Q: What about the T/C (dose: 400.0 mg/kg/injection, schedule: Q01DX009 (ip), vehicle: other) of the same compound?
A: Its T/C is 98 % of control.

Q: How did the T/C (dose: 2.5 mg/kg/injection, schedule: Q01DX005 (ip), vehicle: Klucel (hydroxypropylcellulose) (HPC)) turn out when `COC1=C(C)C(=O)C2=C(C1=O)C1C3CC4=C(C(=O)C(OC)=C(C)C4=O)C(CNC(=O)C(C)O)N3C(C#N)C(C2)N1C` (stereo unspecified) was run?
A: The T/C was 155 % of control and 161 % of control.

Q: Which results are given for `Nc1ccccc1Sc1ccc2c3c(cccc13)C(=O)N(c1ccccc1)C2=O`?
A: T/C [5]: 91 % of control; T/C [6]: 90 % of control; T/C [7]: 100 % of control

Q: Which results are given for `CC(=O)N1CCNC(=O)/C1=C1\CCOC1=O`?
A: T/C [1]: 99 % of control; T/C [2]: 101 % of control; T/C [3]: 110 % of control

Q: How did the T/C (dose: 7.5 mg/kg/injection, schedule: Q01DX005 (ip), vehicle: saline with Tween-80) turn out when `CC(=O)OCC1OC(OC2C=C(O[Si](C)(C)C)C[C@H]3C(=O)C=CC(=O)[C@@H]23)C(OC(C)=O)C(OC(C)=O)C1OC(C)=O` (stereo partly specified) was run?
A: The T/C was 98 % of control.

Q: What about the T/C (dose: 15.0 mg/kg/injection, schedule: Q01DX005 (ip), vehicle: saline with Tween-80) of the same compound?
A: Its T/C is 98 % of control.

Q: What about the T/C [4] of the same compound?
A: Its T/C is 98 % of control and 102 % of control.

Q: With `Cc1cc(C)c2cc(=O)oc-2c(C)c1` as the compound, how does the T/C (dose: 100.0 mg/kg/injection, schedule: Q01DX001 (ip), vehicle: Klucel (hydroxypropylcellulose) (HPC)) read?
A: Its T/C is 100 % of control.

Q: And the T/C (dose: 200.0 mg/kg/injection, schedule: Q01DX001 (ip), vehicle: Klucel (hydroxypropylcellulose) (HPC))?
A: Its T/C is 103 % of control.

Q: And the T/C (dose: 400.0 mg/kg/injection, schedule: Q01DX001 (ip), vehicle: Klucel (hydroxypropylcellulose) (HPC))?
A: The T/C was 100 % of control.

Q: For `O=C(O)CSC(SCC(=O)O)c1ccc(F)cc1`, which T/C [5] is on record?
A: Its T/C is 96 % of control.

Q: What about the T/C [6] of the same compound?
A: Its T/C is 96 % of control.

Q: What about the T/C [7] of the same compound?
A: Its T/C is 97 % of control.

From PubChem BioAssay AID330 (DTP/NCI, 2004)
